One data set relates to M. tuberculosis 103471. Briefly: Antimycobacterial activity, twofold agar dilution MIC. The format is cell-based. Particulars: for M. tuberculosis 103471 MIC: Middlebrook 7H11 agar; for MIC: Mycobacterium tuberculosis, 103471, Middlebrook 7H11 agar. Here is the method:
(§1) Compounds 3a-h were preliminarily assayed against two freshly isolated clinical strains, M. fortuitum CA10 and M. tuberculosis B814, according to the dilution method in agar (Hawkins et al., 1991).
(§2) Growth media were Mueller-Hinton (Difco) containing 10% of OADC (oleic acid, albumine and dextrose complex) for M. fortuitum and Middlebrook 7H11 agar (Difco) with 10% of OADC for M. tuberculosis. Substances were tested at the single dose of 100 μg/mL. The active compounds were then assayed for inhibitory activity against a variety of mycobacterium strains in Middlebrok 7H11 agar by a standard twofold agar dilution method. The mycobacterium species used for biological tests were M. tuberculosis […], M. tuberculosis H37Rv, M. tuberculosis INH-R ATCC, M. tuberculosis RMP-R ATCC and, among atypical mycobacteria, M. smegmatis 103599, M. marinum 6423 and M. avium 103317 (from the Institute Pasteur collection). Plates were incubated at 37° C. for 3 or 28 days. BM212, INH, SM and RIF were used as reference compounds. After cultivation, MICs were read as minimal concentrations of drugs completely inhibiting visible growth of mycobacteria.
A general note: In agar dilution, organisms are placed on agar that contains the substance at set levels.

The next data set relates to M. tuberculosis H37Rv. Described as above. The format is cell-based. Conditions: Middlebrook 7H11 agar; for MIC: Mycobacterium tuberculosis, H37RV. As for the experimental part: as §1, §2
The next data set deals with M. avium 103317. Briefly: Antimycobacterial activity, agar dilution MIC. In kind it is cell-based.
In a further data set the test system is Vero cells. Conditions: MTT after 72 h.
In another data set the test system is M. marinum 6423. Briefly: Antimycobacterial activity, agar dilution MIC. The format is cell-based.
The next data set relates to M. smegmatis 103599. In words: Antimycobacterial activity, agar dilution MIC. The format is cell-based.
For data set [1], the system named is intracellular M. tuberculosis. In words: Inhibitory activity on intramacrophagic mycobacteria (J774.A1 murine macrophages). In kind it is cell-based. Conditions: after 6 days of treatment.
In the next data set the test system is atypical mycobacteria. In words: Antimycobacterial activity toward atypical mycobacteria. In kind it is cell-based. Conditions: M. avium, M. marinum, M. smegmatis together. Here is the method: as §2
The nature of the next data set: in vitro. Conditions: African green monkey.
Setting [2] is: Table 7 head prints strain 103471.
[3] abbreviates: Mycobacterium avium, 103317; Table 7 head prints strain 103471; read-out: M. avium 103471 MIC.
Setting [4] is: Mycobacterium avium, 103317; read-out: M. avium 103317 MIC.
Where [5] appears, read: Mycobacterium marinum, 6423; read-out: M. marinum 6423 MIC.
Where [6] appears, read: Mycolicibacterium smegmatis, 103599; read-out: M. smegmatis 103599 MIC.

Values after ≈ are worked out from the molar mass of the structure shown. Values joined by “and” are separate entries in the source; they are usually repeats but may differ in a detail not shown here. Equal entries are not always repeated. Where two headings read alike, the source gives them in different places. Where only a bound is given, the exact number is not on record here.

What is called MIC is the smallest concentration in the dilution series that meets the test's criterion for growth inhibition.

Take `CCc1ccc(-n2c(-c3ccc(SC)cc3)cc(CN3CCSCC3)c2C)cc1` [Compound 3c]: the “M. tuberculosis 103471 MIC” value in the data set on M. tuberculosis 103471 was determined as 0.25 µg/mL. The “M. tuberculosis H37Rv MIC” value in the data set with M. tuberculosis H37Rv was 0.25 µg/mL. For the same compound, the “M. avium 103471 MIC” value with M. avium 103317 (setting [2]) was over 16 µg/mL. In addition, the “CC50 VERO cells” value in the data set with Vero cells came out at 17.18 µg/mL (≈ 40.6 µM).

In the case of `CSc1ccc(-c2cc(CN3CCOCC3)c(C)n2-c2ccc(F)cc2)cc1` [Compound 3h], the “M. tuberculosis 103471 MIC” value with M. tuberculosis 103471 worked out at 0.25 µg/mL. Further, the “M. tuberculosis H37Rv MIC” value in the data set on M. tuberculosis H37Rv stood at 0.5 µg/mL. Further, the “M. avium 103471 MIC” value with M. avium 103317 (setting [2]) was 16 µg/mL. Besides, the “CC50 VERO cells” value with Vero cells is 44.34 µg/mL (≈ 112 µM).

Regarding `CSc1ccc(-c2cc(CN3CCSCC3)c(C)n2-c2ccc(F)cc2)cc1` [Compound 3a, N-(4-fluorophenyl)-2-methyl-3-thiomorpholinomethyl-5-(4-methylsulfanylphenyl)pyrrole], in the data set with M. tuberculosis 103471, the “M. tuberculosis 103471 MIC” value was 0.125 µg/mL and <0.125 µg/mL. The MIC was under 0.125 µg/mL against M. tuberculosis 103471; 0.125 µg/mL (≈ 0.303 µM) against M. tuberculosis H37Rv; 8 µg/mL (≈ 19.4 µM) with M. avium 103317 (setting [3]); 8 µg/mL (≈ 19.4 µM) in the data set on M. avium 103317 (setting [4]); 8 µg/mL (≈ 19.4 µM) in the data set on M. marinum 6423 (setting [5]); 16 µg/mL (≈ 38.8 µM) in the data set on M. smegmatis 103599 (setting [6]). In addition, the “% of growth reduction respect to untreated controls, intracellular M. tuberculosis” value in data set [1] (concentration 0.125 μg/ml) turned out to be 96.12%; in data set [1] (concentration 0.25 μg/ml), 99.02%; in data set [1] (concentration 0.5 μg/ml) it was 99.72%; in data set [1] (concentration 1 μg/ml), 99.81%. Moreover, the “activity toward atypical mycobacteria (MIC range)” value with atypical mycobacteria is 8 to 16 µg/mL. This compound also showed a CC50 in the data set “in vitro” of over 128 µg/mL.

For the compound `CSc1ccc(-c2cc(CN3CCSCC3)c(C)n2-c2ccc(C)cc2)cc1` [Compound 3b], the “M. tuberculosis 103471 MIC” value in the data set on M. tuberculosis 103471 is 0.25 µg/mL. For the same compound, in the data set with M. tuberculosis H37Rv, the “M. tuberculosis H37Rv MIC” value was 0.25 µg/mL. In addition, the “M. avium 103471 MIC” value with M. avium 103317 (setting [2]) amounted to 16 µg/mL. In addition, in the data set with Vero cells, the “CC50 VERO cells” value came out at 18.40 µg/mL (≈ 45 µM).

Turning to `NNC(=O)c1ccncc1` [Isoniazid, INH, Isoniazid, reference compound], the MIC was determined as 0.125 µg/mL (≈ 0.911 µM) against M. tuberculosis 103471; 0.25 µg/mL (≈ 1.82 µM) in the data set on M. tuberculosis H37Rv; 32 µg/mL (≈ 233 µM) in the data set with M. avium 103317 (Mycobacterium avium, 103317, read-out: M. avium 103317 MIC); 32 µg/mL (≈ 233 µM) in the data set on M. avium 103317 (Mycobacterium avium, 103317, read-out: M. avium 103471 MIC); 16 µg/mL (≈ 117 µM) in the data set on M. marinum 6423 (Mycobacterium marinum, 6423, read-out: M. marinum 6423 MIC); 64 µg/mL (≈ 467 µM) in the data set on M. smegmatis 103599 (Mycolicibacterium smegmatis, 103599, read-out: M. smegmatis 103599 MIC). The compound further showed a CC50 in “in vitro” of 32 µg/mL (≈ 233 µM).

As for `CSc1ccc(-c2cc(CN3CCSCC3)c(C)n2-c2ccc(C(C)C)cc2)cc1` [Compound 3e], the “M. tuberculosis 103471 MIC” value in the data set with M. tuberculosis 103471 was determined as 0.125 µg/mL. Besides, in the data set on M. tuberculosis H37Rv, the “M. tuberculosis H37Rv MIC” value turned out to be 0.5 µg/mL. In addition, the “M. avium 103471 MIC” value in the data set on M. avium 103317 (setting [2]) was 8 µg/mL. Moreover, in the data set on Vero cells, the “CC50 VERO cells” value was 37.58 µg/mL (≈ 86.1 µM).

Consider `Cc1c(CN2CCN(C)CC2)cc(-c2ccc(Cl)cc2)n1-c1ccc(Cl)cc1` [BM 212, 1-{[1,5-bis(4-chlorophenyl)-2-methyl-1H-pyrrol-3-yl]methyl}-4-methylpiperazine], for which, in the data set with M. tuberculosis 103471, the “M. tuberculosis 103471 MIC” value is 0.7 µg/mL. The minimum inhibitory concentration (MIC) with M. tuberculosis 103471 was 0.7 µg/mL (≈ 1.69 µM); with M. avium 103317 (setting [3]) it was 0.4 µg/mL (≈ 0.965 µM); with M. avium 103317 (setting [4]), 0.4 µg/mL (≈ 0.965 µM); with M. marinum 6423 (setting [5]), 100 µg/mL (≈ 241 µM); in the data set on M. smegmatis 103599 (setting [6]), 25 µg/mL (≈ 60.3 µM). The “% of growth reduction respect to untreated controls, intracellular M. tuberculosis” value in [1] (concentration 0.125 μg/ml) stood at 0%; in data set [1] (concentration 0.25 μg/ml), 29.41%; in [1] (concentration 0.5 μg/ml), 32.35%; in data set [1] (concentration 1 μg/ml), 51.76%. The CC50 in the data set “in vitro” turned out to be 4 µg/mL (≈ 9.65 µM).

For `CCCc1ccc(-n2c(-c3ccc(SC)cc3)cc(CN3CCSCC3)c2C)cc1` [Compound 3d], the “M. tuberculosis 103471 MIC” value in the data set on M. tuberculosis 103471 amounted to 0.125 µg/mL. Further, the “M. tuberculosis H37Rv MIC” value with M. tuberculosis H37Rv was determined as 0.5 µg/mL. Moreover, the “M. avium 103471 MIC” value in the data set on M. avium 103317 (setting [2]) is 8 µg/mL. In addition, the “CC50 VERO cells” value in the data set on Vero cells was determined as 25.25 µg/mL (≈ 57.8 µM).

On to `CO[C@H]1/C=C/O[C@@]2(C)Oc3c(C)c(O)c4c(O)c(c(/C=N/N5CCN(C)CC5)c(O)c4c3C2=O)NC(=O)/C(C)=C\C=C\[C@H](C)[C@H](O)[C@@H](C)[C@@H](O)[C@@H](C)[C@H](OC(C)=O)[C@@H]1C` [Rifampicin, RIF, Rifampicin], for which the MIC in the data set with M. tuberculosis 103471 worked out at 0.25 µg/mL (≈ 0.304 µM); against M. tuberculosis H37Rv, 0.8 µg/mL (≈ 0.972 µM); in the data set with M. avium 103317 (setting [3]), 0.3 µg/mL (≈ 0.365 µM); in the data set on M. avium 103317 (setting [4]), 0.3 µg/mL (≈ 0.365 µM); with M. marinum 6423 (setting [5]), 0.6 µg/mL (≈ 0.729 µM); in the data set with M. smegmatis 103599 (setting [6]), 32 µg/mL (≈ 38.9 µM). Moreover, the “% of growth reduction respect to untreated controls, intracellular M. tuberculosis” value in data set [1] (concentration 0.125 μg/ml) worked out at 96.59%; in data set [1] (concentration 0.25 μg/ml), 99.83%; in data set [1] (concentration 0.5 μg/ml) it was 99.93%; in data set [1] (concentration 1 μg/ml), 99.97%. Moreover, the CC50 in the data set “in vitro” is over 64 µg/mL.

In the case of `CSc1ccc(-c2cc(CN3CCN(C)CC3)c(C)n2-c2ccc(F)cc2)cc1` [Compound 3f], the “M. tuberculosis 103471 MIC” value in the data set with M. tuberculosis 103471 was 2 µg/mL. Further, the “M. tuberculosis H37Rv MIC” value in the data set with M. tuberculosis H37Rv worked out at 2 µg/mL. The “M. avium 103471 MIC” value in the data set with M. avium 103317 (setting [2]) amounted to 4 µg/mL. For the same compound, the “CC50 VERO cells” value in the data set on Vero cells turned out to be 9.33 µg/mL (≈ 22.8 µM).

As to `CSc1ccc(-c2cc(CN3CCCCC3)c(C)n2-c2ccc(F)cc2)cc1` [Compound 3g], the “M. tuberculosis 103471 MIC” value in the data set on M. tuberculosis 103471 came out at 8 µg/mL.

As for `[H]/N=C(/N)N[C@H]1[C@H](O)[C@@H](O)[C@H](O[C@@H]2O[C@@H](C)[C@](O)(C=O)[C@H]2O[C@@H]2O[C@@H](CO)[C@H](O)[C@@H](O)[C@@H]2NC)[C@@H](N/C(N)=N\[H])[C@@H]1O` [Streptomycin, SM, Streptomycin, reference compound], the “M. tuberculosis 103471 MIC” value with M. tuberculosis 103471 worked out at 0.3 µg/mL. The MIC worked out at 0.3 µg/mL (≈ 0.516 µM) in the data set on M. tuberculosis 103471; 0.5 µg/mL (≈ 0.86 µM) in the data set with M. tuberculosis H37Rv; 8 µg/mL (≈ 13.8 µM) with M. avium 103317 (setting [3]); 8 µg/mL (≈ 13.8 µM) in the data set with M. avium 103317 (setting [4]); 32 µg/mL (≈ 55 µM) in the data set on M. marinum 6423 (setting [5]); 8 µg/mL (≈ 13.8 µM) in the data set with M. smegmatis 103599 (setting [6]). Also, the CC50 in the data set “in vitro” is 64 µg/mL (≈ 110 µM).

These data come from patent publication US8304410B2, “Pyrrole compounds as inhibitors of mycobacteria, synthesis thereof and intermediates thereto” (priority 2007, dated 2012).
